The results in this text go back to patent US4556660A, “N-(Bicyclic heterocyclyl)-4-piperidinamines” (Janssen Pharmaceutica N.V., priority 1983, dated 1985).

For assay [1], the system named is serotonin; compound 48/80-induced gastric lesions. Nature of the assay: Antagonistic activity on the effects of serotonin in the gastric lesion test (lesions induced by compound 48/80). It is filed as in vivo, Male rats of a Wistar inbred strain. The method, then: Antagonistic activity on the effects of serotonin in the gastric lesion test
Male rats of a Wistar inbred strain, weighing 220-250 g, were starved overnight, water being available ad libitum. The test compounds were administered orally as a solution or as a suspension in aqueous medium. A control rat and a "blank" rat received the test compound. One hour later 5-[4-(diphenylmethyl)-1-piperazinylmethyl]-1-methyl-1H-benzimidazole-2-methanol was administered subcutaneously to all rats at the dose of 2.5 mg/kg.
Four hours after the intravenous injection of compound 48/80, the rats were decapitated and the stomachs were removed. Subsequently the stomachs were inspected for distension and contents (blood, fluid, food) and thoroughly rinsed. The macroscopic lesions were scored from 0 to +++, 0 corresponding to complete absence of visible lesions and the highest score corresponding to reddish rough patches covering more than half the glandular area.

In assay [2] the test system is compound 48/80-induced lethality. Kind of assay: Protection of rats from compound 48/80-induced lethality. It is filed as in vivo, Male rats of an inbred Wistar strain. To be noted: for ED50: Rattus norvegicus, 4 h, read-out: compound 48/80 lethality test rats-ED50. Here is the method:
Protection of rats from compound 48/80-induced lethality
The protection from compound 48/80-induced lethal circulatory collapse appears to be a simple way of evaluating quantitatively the antihistaminic activity of test compounds. Male rats of an inbred Wistar strain, weighing 240-260 g were used in the experiment. After overnight starvation the rats were transferred to conditioned laboratories (temp.=21±1° C., relative humidity-65±5%).
The rats were treated subcutaneously or orally with a test compound or with the solvent (NaCl solution, 0.9%). […] Survival after 4 hours is therefore considered to be a safe criterion of a protective effect of drug administration.
The ED50 -values of the compounds of formula (I) and the intermediates of formula (XVIII) are listed in the first column of table 1 and table 2. Said ED50 -values are the values in mg/kg body weight at which the tested compounds protect 50% of the tested animals against compound 48/80-induced lethality.

[3] abbreviates: Rattus norvegicus, po; read-out: gastric lesion test ED50.

Like-named read-outs stand apart in the source and are kept apart here.

Regarding `CN(c1nc2ccccc2n1Cc1ccc(F)cc1)C1CCN(CCNc2ncccn2)CC1` [Compound 75], the ED50 in assay [1] (Rattus norvegicus, po, read-out: gastric lesion test ED50) turned out to be 0.63 mg/kg; in assay [2], 0.08 mg/kg.

Regarding `Fc1ccc(Cn2c(NC3CCN(CCNc4ncccc4Cl)CC3)nc3cccnc32)cc1` [Compound 47], the ED50 worked out at 0.31 mg/kg in assay [1] (setting [3]) and 0.08 mg/kg in assay [2].

In the case of `O=[N+]([O-])c1ccc(NCCN2CCC(Nc3nc4ccccc4n3Cc3ccc(F)cc3)CC2)nc1` [Compound 13], the ED50 amounted to 2.5 mg/kg in assay [1] (setting [3]) and 0.31 mg/kg in assay [2].

On to “3[(4-fluorophenyl)methyl]-N-[1-[2-[(2-pyridinyl)amino]ethyl]-4-piperidinyl]-3H-imidazo[4,5-b]pyridin-2-amine [Compound 23]”, for which the “gastric lesion test ED50” value in assay [1] (rats, oral, 2 h before compound 48/80 1 mg/kg i.v.; stomach distension and glandular lesions completely absent in 50% of rats) is 0.08 mg/kg body weight. Besides, the “compound 48/80 lethality test rats-ED50” value in assay [2] (rats, subcutaneous or oral, 1 h before compound 48/80 0.5 mg/kg i.v., 50% protected, survival after 4 h) is 0.04 mg/kg body weight.

As to `Fc1ccc(Cn2c(NC3CCN(CCNc4ccc(Cl)nn4)CC3)nc3ccccc32)cc1` [Compound 37], the ED50 worked out at 1.25 mg/kg in assay [1] (setting [3]) and 0.08 mg/kg in assay [2].

Regarding `Brc1ccc(OCCN2CCC(Nc3nc4ccccc4n3Cc3ccco3)CC2)nc1` [Compound 78, N-[1-[2-[(5-bromo-2-pyridinyl)oxy]ethyl]-4-piperidinyl]-1-(2-furanylmethyl)-1H-benzimidazol-2-amine], the ED50 in assay [2] was 0.31 mg/kg.

For the compound `COc1cc(NCCN2CCC(Nc3nc4ccccc4n3Cc3ccc(F)cc3)CC2)ncn1` [Compound 98, 1-[(4-fluorophenyl)methyl]-N-[1-[2-[(6-methoxy-4-pyrimidinyl)amino]ethyl]-4-piperidinyl]-1H-benzimidazol-2-amine], the ED50 in assay [2] came to 0.16 mg/kg.

Take `Cc1nc2ccccc2nc1OCCN1CCC(Nc2nc3ccccc3n2Cc2ccc(F)cc2)CC1` [Compound 80, 1-[(4-fluorophenyl)methyl]-N-[1-[2-[(3-methyl-2-quinoxalinyl)oxy]ethyl]-4-piperidinyl]-1H-benzimidazol-2-amine]: the ED50 in assay [2] came out at 2.5 mg/kg.

Turning to `Fc1ccc(Cn2c(NC3CCN(CCNc4ncnc5ccccc45)CC3)nc3ccccc32)cc1`, the ED50 stood at 2.5 mg/kg in assay [1] (setting [3]) and 0.08 mg/kg in assay [2].

Regarding `Fc1ccc(Cn2c(NC3CCN(CCNc4cc(Cl)ncn4)CC3)nc3ccccc32)cc1` [Compound 5], the ED50 in assay [2] was 0.31 mg/kg.

In the case of `CCCc1cc(O)nc(NCCN2CCC(Nc3nc4ccccc4n3Cc3ccc(F)cc3)CC2)n1` [Compound 86, 2-[[2-[4-[[1-[(4-fluorophenyl)methyl]-1H-benzimidazol-2-yl]amino]-1-piperidinyl]ethyl]amino]-6-propyl-4-pyrimidinol], the ED50 amounted to 2.5 mg/kg in assay [1] (setting [3]) and 0.31 mg/kg in assay [2].

Turning to `O=C(NCCN1CCC(Nc2nc3ccccc3n2Cc2ccc(F)cc2)CC1)c1ccc(Cl)nc1.O=C(O)/C=C/C(=O)O.O=C(O)/C=C/C(=O)O` [Compound 116, 6-chloro-N-[2-[4-[[1-[(4-fluorophenyl)methyl]-1H-benzimidazol-2-yl]amino]-1-piperidinyl]ethyl]-3-pyridinecarboxamide (E)-2-butenedioate (1:2)], the ED50 in assay [1] (setting [3]) worked out at 2.5 mg/kg; in assay [2], 0.31 mg/kg.

Consider `Fc1ccc(Cn2c(NC3CCN(CCNc4ncccn4)CC3)nc3ccncc32)cc1.O=C(O)/C=C/C(=O)O.O=C(O)/C=C/C(=O)O` [Compound 29, 3-[(4-fluorophenyl)methyl]-N-[1-[2-[(2-pyrimidinyl)amino]ethyl]-4-piperidinyl]-3H-imidazo[4,5-c]pyridin-2-amine (E)-2-butenedioate (1:2)], for which the ED50 in assay [2] came out at 0.16 mg/kg.

With `c1cnc(NCCN2CCC(Nc3nc4ccccc4n3Cc3cccs3)CC2)nc1` [Compound 19], the ED50 came out at 2.5 mg/kg in assay [1] (setting [3]) and 0.02 mg/kg in assay [2].

As for `O=C(O)/C=C/C(=O)O.O=C(O)/C=C/C(=O)O.c1cnc(OCCN2CCC(Nc3nc4ccccc4n3Cc3ccco3)CC2)nc1` [Compound 83, 1-(2-furanylmethyl)-N-[1-[2-(2-pyrimidinyloxy)ethyl]-4-piperidinyl]-1H-benzimidazol-2-amine (E)-2-butenedioate (1:2)], the ED50 in assay [1] (setting [3]) stood at 1.25 mg/kg; in assay [2], 0.08 mg/kg.

In the case of `O=[N+]([O-])c1cccnc1N1CCC(N2CCC(Nc3nc4ccccc4n3Cc3ccc(F)cc3)CC2)CC1` [Compound 11], the ED50 in assay [2] stood at 0.63 mg/kg.

Turning to `O=C(O)/C=C/C(=O)O.O=C(O)/C=C/C(=O)O.O=C(OCCN1CCC(Nc2nc3ccccc3n2Cc2ccc(F)cc2)CC1)c1ccc2ccccc2n1` [Compound 112, [2-[4-[[1-[(4-fluorophenyl)methyl]-1H-benzimidazol-2-yl]amino]-1-piperidinyl]ethyl]-2-quinolinecarboxylate (E)-2-butenedioate (1:2)], the ED50 in assay [1] (setting [3]) turned out to be 0.63 mg/kg; in assay [2], 0.04 mg/kg.

For `Nc1c(Cl)ncnc1NCCN1CCC(Nc2nc3ccccc3n2Cc2ccc(F)cc2)CC1` [Compound 31, 6-chloro-N^4-[2-[4-[[1-[(4-fluorophenyl)methyl]-1H-benzimidazol-2-yl]amino]-1-piperidinyl]ethyl]-4,5-pyrimidinediamine], the ED50 in assay [1] (setting [3]) is 1.25 mg/kg; in assay [2] it was 0.16 mg/kg.

Turning to `Fc1ccc(Cn2c(NC3CCN(CCNc4ncccn4)CC3)nc3ccccc32)cc1` [Compound 1, 1-[(4-fluorophenyl)methyl]-N-[1-[2-[(2-pyrimidinyl)amino]ethyl]-4-piperidinyl]-1H-benzimidazol-2-amine], the ED50 in assay [1] (setting [3]) stood at 0.63 mg/kg; in assay [2], 0.16 mg/kg.

On to `Cc1ccc(Cn2c(NC3CCN(CCNc4ncccn4)CC3)nc3ccccc32)o1` [Compound 21], for which the ED50 in assay [1] (setting [3]) was found to be 0.63 mg/kg; in assay [2], 0.04 mg/kg.

As for `Cc1nc2ccccc2nc1NCCN1CCC(Nc2nc3ccccc3n2Cc2ccc(F)cc2)CC1` [Compound 41], in assay [2], the ED50 worked out at 1.25 mg/kg.

On to `Fc1ccc(Cn2c(NC3CCN(CCc4cnccn4)CC3)nc3ccccc32)cc1` [Compound 101, 1-(4-fluorophenylmethyl)-N-[1-[2-(2-pyrazinyl)ethyl]-4-piperidinyl]-1H-benzimidazol-2-amine], for which, in assay [2], the ED50 stood at 0.31 mg/kg.

With `OCCN1CCC(Nc2nc3cnccc3n2Cc2ccc(F)cc2)CC1` [CH2 CH2 OH 4-FC6 H4 CH2 -- 3 base], in assay [2], the ED50 worked out at 0.31 mg/kg.

Consider `Fc1ccc(Cn2c(NC3CCN(CCNc4ncccn4)CC3)nc3cnccc32)cc1` [Compound 26, 1[(4-fluorophenyl)methyl]-N-[1-[2-(2-pyrimidinylamino]ethyl]-4-piperidinyl]1H-imidazo[4,5-c]pyridin-2-amine], for which, in assay [2], the ED50 came to 0.08 mg/kg.

Regarding `N#CCN1CCC(Nc2nc3cnccc3n2Cc2ccc(F)cc2)CC1` [Intermediate 81], the ED50 in assay [2] amounted to 0.63 mg/kg.

In the case of `O=C(NCCN1CCC(Nc2nc3ccccc3n2Cc2ccc(F)cc2)CC1)c1cccnc1Cl` [Compound 115, 2-chloro-N-[2-[4-[[1-[(4-fluorophenyl)methyl]-1H-benzimidazol-2-yl]amino]-1-piperidinyl]ethyl]-3-pyridinecarboxamide (E)-2-butenedioate (1:2) hemihydrate], the ED50 in assay [2] amounted to 0.16 mg/kg.

On to `NCCN1CCC(Nc2nc3cnccc3n2Cc2ccc(F)cc2)CC1` [Intermediate 111], for which the ED50 in assay [2] was 0.16 mg/kg.

With `Fc1ccc(Cn2c(NC3CCN(CCNc4ccc5ccccc5n4)CC3)nc3ccccc32)cc1` [Compound 44], the ED50 in assay [2] was 0.31 mg/kg.

In the case of `c1cnc(NCCN2CCC(Nc3nc4ccccc4n3Cc3cccnc3)CC2)nc1` [Compound 17], the ED50 in assay [2] was 1.25 mg/kg.

For `O=c1cc(Cc2ccccc2)[nH]c(NCCN2CCC(Nc3nc4ccccc4n3Cc3ccc(F)cc3)CC2)n1` [Compound 89, 2-[[2-[4-[[1-[(4-fluorophenyl)methyl]-1H-benzimidazol-2-yl]amino]-1-piperidinyl]ethyl]amino]-6-(phenylmethyl)-4-(1H)-pyrimidinone], in assay [2], the ED50 is 0.63 mg/kg.

Regarding `Fc1ccc(Cn2c(NC3CCN(CCCNc4ncccn4)CC3)nc3ccccc32)cc1` [Compound 4], in assay [2], the ED50 was 0.16 mg/kg.

For the compound `Fc1ccc(Cn2c(NC3CCN(CCOc4ccc(Br)cn4)CC3)nc3ccccc32)cc1` [Compound 82, N-[1-[2-[(5-bromo-2-pyridinyl)oxy]ethyl]-4-piperidinyl]-1-[(4-fluorophenyl)methyl]-1H-benzimidazol-2-amine], the ED50 in assay [2] was 0.16 mg/kg.

On to `Cc1cc(Cl)nc(NCCN2CCC(Nc3nc4ccccc4n3Cc3ccc(F)cc3)CC2)n1` [Compound 62, N-[1-[2-[(4-chloro-6-methyl-2-pyrimidinyl)amino]ethyl]-4-piperidinyl]-1-[(4-fluorophenyl)methyl]-1H-benzimidazol-2-amine], for which, in assay [2], the ED50 worked out at 0.63 mg/kg.

With `Cc1cc(NCCN2CCC(Nc3nc4ccccc4n3Cc3ccc(F)cc3)CC2)nc(N)n1` [Compound 35], in assay [2], the ED50 came to 0.31 mg/kg.

For the compound `Fc1ccc(Cn2c(NC3CCN(C4CCN(c5ncccn5)CC4)CC3)nc3ccccc32)cc1` [Compound 6], the ED50 in assay [2] was 1.25 mg/kg.
